This is an account of results in the supplement of paper PMC10307832.

Holding throughout (assay): relative viability (nuclei count vs DMSO), 5 days (fraction); higher = more cells survive
Compound in the assay “Metformin + Phenformin”: CN(C)C(=N)NC(=N)N [Metformin] + N=C(N)NC(=N)NCCc1ccccc1 [Phenformin] (partner 250 µM)
The essentials:
(§1)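 The day after seeding in 1536-well plates, lung cancer cell lines were treated by pin tool with a single drug, or with a fixed anchor-drug dose together with five library-drug doses (not always all listed) in √10 steps. After 5 days, a combined fix-and-stain solution (final 0.05% Triton X-100, 1% formaldehyde, 1 ug/ml Hoechst) was added. Nuclei counted on 4× images gave relative viability as treated counts over vehicle counts, reported as the median of duplicate plates.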

Compound in the assay “Apatinib + Trametinib”: N#CC1(c2ccc(NC(=O)c3cccnc3NCc3ccncc3)cc2)CCCC1 [Apatinib] + CC(=O)Nc1cccc(-n2c(=O)n(C3CC3)c(=O)c3c(Nc4ccc(I)cc4F)n(C)c(=O)c(C)c32)c1 [Trametinib] (partner 0.02 µM)
The essentials: as §1

Compound in the assay “Apatinib + Pictilisib”: N#CC1(c2ccc(NC(=O)c3cccnc3NCc3ccncc3)cc2)CCCC1 [Apatinib] + CS(=O)(=O)N1CCN(Cc2cc3nc(-c4cccc5[nH]ncc45)nc(N4CCOCC4)c3s2)CC1 [Pictilisib] (partner 1 µM)
The essentials: as §1

Compound in the assay “Apatinib + Vorinostat”: N#CC1(c2ccc(NC(=O)c3cccnc3NCc3ccncc3)cc2)CCCC1 [Apatinib] + O=C(CCCCCCC(=O)Nc1ccccc1)NO [Vorinostat] (partner 1 µM)
The essentials: as §1

On to 201T, for which the relative viability came out at 0.426 in the assay with Metformin + Phenformin (first compound 31.62 µM); 0.47 with Metformin + Phenformin (first compound 100 µM); 0.435 with Metformin + Phenformin (first compound 316.23 µM); 0.414 in the assay with Metformin + Phenformin (first compound 1000 µM); 0.731 with Apatinib + Trametinib (first compound 0.08 µM); 0.725 in the assay with Apatinib + Trametinib (first compound 0.253 µM). For the same cell line, the relative viability with Apatinib + Trametinib (first compound 0.8 µM) was found to be 0.68; with Apatinib + Trametinib (first compound 2.53 µM) it was 0.729; with Apatinib + Trametinib (first compound 8 µM) it was 0.607; with Apatinib + Pictilisib (first compound 0.08 µM) it was 0.748; with Apatinib + Pictilisib (first compound 0.253 µM), 0.643; with Apatinib + Pictilisib (first compound 0.8 µM), 0.662. Further, the relative viability with Apatinib + Pictilisib (first compound 2.53 µM) worked out at 0.604; in the assay with Apatinib + Pictilisib (first compound 8 µM), 0.663; with Apatinib + Vorinostat (first compound 0.08 µM), 0.724; in the assay with Apatinib + Vorinostat (first compound 0.253 µM) it was 0.918; with Apatinib + Vorinostat (first compound 0.8 µM) it was 0.898; with Apatinib + Vorinostat (first compound 2.53 µM) it was 0.969. Besides, the relative viability with Apatinib + Vorinostat (first compound 8 µM) came to 0.966.

Consider A549, for which the relative viability in the assay with Metformin + Phenformin (first compound 10 µM) was 0.0727; with Metformin + Phenformin (first compound 31.62 µM), 0.111; in the assay with Metformin + Phenformin (first compound 100 µM), 0.127; with Metformin + Phenformin (first compound 316.23 µM) it was 0.124; with Metformin + Phenformin (first compound 1000 µM) it was 0.154; in the assay with Apatinib + Pictilisib (first compound 0.08 µM) it was 0.651. Further, the relative viability with Apatinib + Pictilisib (first compound 0.253 µM) was found to be 0.626; with Apatinib + Pictilisib (first compound 0.8 µM), 0.421; with Apatinib + Pictilisib (first compound 2.53 µM), 0.488; with Apatinib + Pictilisib (first compound 8 µM) it was 0.406.

For the cell line A-427, the relative viability with Metformin + Phenformin (first compound 10 µM) worked out at 0.32; in the assay with Metformin + Phenformin (first compound 31.62 µM) it was 0.376; in the assay with Metformin + Phenformin (first compound 100 µM) it was 0.325; in the assay with Metformin + Phenformin (first compound 316.23 µM), 0.284; with Metformin + Phenformin (first compound 1000 µM), 0.287; in the assay with Apatinib + Trametinib (first compound 0.08 µM), 0.832. Also, the relative viability with Apatinib + Trametinib (first compound 0.253 µM) was determined as 0.741; in the assay with Apatinib + Trametinib (first compound 0.8 µM) it was 0.726; with Apatinib + Trametinib (first compound 2.53 µM), 0.737; with Apatinib + Trametinib (first compound 8 µM), 0.521; with Apatinib + Pictilisib (first compound 0.08 µM) it was 0.925; with Apatinib + Pictilisib (first compound 0.253 µM) it was 0.679. For the same cell line, the relative viability with Apatinib + Pictilisib (first compound 0.8 µM) is 0.715; with Apatinib + Pictilisib (first compound 2.53 µM), 0.611; with Apatinib + Pictilisib (first compound 8 µM) it was 0.592; with Apatinib + Vorinostat (first compound 0.08 µM), 0.861; in the assay with Apatinib + Vorinostat (first compound 0.253 µM) it was 0.852; in the assay with Apatinib + Vorinostat (first compound 0.8 µM), 0.855. Moreover, the figures for the relative viability in the assay with Apatinib + Vorinostat (first compound 2.53 µM) and in the assay with Apatinib + Vorinostat (first compound 8 µM) were 0.866 and 0.853, respectively.

ABC-1: the relative viability with Metformin + Phenformin (first compound 10 µM) worked out at 0.292; with Metformin + Phenformin (first compound 31.62 µM) it was 0.244; in the assay with Metformin + Phenformin (first compound 100 µM) it was 0.251; with Metformin + Phenformin (first compound 316.23 µM) it was 0.202; with Metformin + Phenformin (first compound 1000 µM) it was 0.19; in the assay with Apatinib + Pictilisib (first compound 0.253 µM) it was 1.01. The relative viability in the assay with Apatinib + Pictilisib (first compound 0.8 µM) stood at 0.637; in the assay with Apatinib + Pictilisib (first compound 2.53 µM), 0.752; with Apatinib + Pictilisib (first compound 8 µM), 0.552; with Apatinib + Vorinostat (first compound 0.253 µM), 1.2; with Apatinib + Vorinostat (first compound 0.8 µM), 1.07; in the assay with Apatinib + Vorinostat (first compound 2.53 µM) it was 1.04. Further, the relative viability in the assay with Apatinib + Vorinostat (first compound 8 µM) stood at 1.22.

With BEN, the relative viability with Metformin + Phenformin (first compound 10 µM) came to 0.295; with Metformin + Phenformin (first compound 31.62 µM), 0.292; with Metformin + Phenformin (first compound 100 µM) it was 0.297; in the assay with Metformin + Phenformin (first compound 316.23 µM), 0.27; in the assay with Metformin + Phenformin (first compound 1000 µM) it was 0.252; with Apatinib + Trametinib (first compound 0.08 µM), 1.22. Further, the relative viability in the assay with Apatinib + Trametinib (first compound 0.253 µM) came to 0.944; with Apatinib + Trametinib (first compound 0.8 µM), 1.11; with Apatinib + Trametinib (first compound 2.53 µM) it was 0.948; with Apatinib + Trametinib (first compound 8 µM) it was 0.687; in the assay with Apatinib + Pictilisib (first compound 0.08 µM), 0.557; with Apatinib + Pictilisib (first compound 0.253 µM) it was 0.526. Besides, the relative viability came to 0.55 with Apatinib + Pictilisib (first compound 0.8 µM); 0.464 in the assay with Apatinib + Pictilisib (first compound 2.53 µM); 0.468 in the assay with Apatinib + Pictilisib (first compound 8 µM); 0.584 with Apatinib + Vorinostat (first compound 0.08 µM); 0.62 in the assay with Apatinib + Vorinostat (first compound 0.253 µM); 0.609 with Apatinib + Vorinostat (first compound 0.8 µM). The values for the relative viability in the assay with Apatinib + Vorinostat (first compound 2.53 µM) and with Apatinib + Vorinostat (first compound 8 µM) were 0.589 and 0.536, respectively.

Regarding CAL-12T, the relative viability in the assay with Metformin + Phenformin (first compound 10 µM) amounted to 0.635; with Metformin + Phenformin (first compound 31.62 µM), 0.61; with Metformin + Phenformin (first compound 100 µM) it was 0.634; with Metformin + Phenformin (first compound 316.23 µM) it was 0.555; with Metformin + Phenformin (first compound 1000 µM), 0.604; with Apatinib + Trametinib (first compound 0.08 µM), 0.385. In addition, the relative viability in the assay with Apatinib + Trametinib (first compound 0.253 µM) stood at 0.337; with Apatinib + Trametinib (first compound 0.8 µM) it was 0.289; with Apatinib + Trametinib (first compound 2.53 µM) it was 0.313; in the assay with Apatinib + Trametinib (first compound 8 µM), 0.249; with Apatinib + Pictilisib (first compound 0.08 µM) it was 0.304; in the assay with Apatinib + Pictilisib (first compound 0.253 µM) it was 0.352. Moreover, the relative viability with Apatinib + Pictilisib (first compound 0.8 µM) worked out at 0.393; in the assay with Apatinib + Pictilisib (first compound 2.53 µM), 0.484; in the assay with Apatinib + Pictilisib (first compound 8 µM), 0.353; in the assay with Apatinib + Vorinostat (first compound 0.08 µM) it was 0.941; with Apatinib + Vorinostat (first compound 0.253 µM), 1.02; in the assay with Apatinib + Vorinostat (first compound 0.8 µM), 0.741. For the same cell line, the relative viability with Apatinib + Vorinostat (first compound 2.53 µM) was determined as 0.794; in the assay with Apatinib + Vorinostat (first compound 8 µM), 0.765.

COR-L23: the relative viability came to 0.437 with Metformin + Phenformin (first compound 10 µM); 0.46 with Metformin + Phenformin (first compound 31.62 µM); 0.487 in the assay with Metformin + Phenformin (first compound 100 µM); 0.431 in the assay with Metformin + Phenformin (first compound 316.23 µM); 0.146 with Metformin + Phenformin (first compound 1000 µM); 0.721 with Apatinib + Trametinib (first compound 0.08 µM). Also, the relative viability in the assay with Apatinib + Trametinib (first compound 0.253 µM) is 0.666; with Apatinib + Trametinib (first compound 0.8 µM), 0.574; in the assay with Apatinib + Trametinib (first compound 2.53 µM) it was 0.466; in the assay with Apatinib + Trametinib (first compound 8 µM), 0.376; with Apatinib + Pictilisib (first compound 0.08 µM), 0.966; with Apatinib + Pictilisib (first compound 0.253 µM) it was 0.777. For the same cell line, the relative viability in the assay with Apatinib + Pictilisib (first compound 0.8 µM) was 0.788; with Apatinib + Pictilisib (first compound 2.53 µM), 0.65; with Apatinib + Pictilisib (first compound 8 µM), 0.658; in the assay with Apatinib + Vorinostat (first compound 0.08 µM), 0.516; with Apatinib + Vorinostat (first compound 0.253 µM), 0.461; with Apatinib + Vorinostat (first compound 0.8 µM) it was 0.333. In addition, the relative viability in the assay with Apatinib + Vorinostat (first compound 2.53 µM) is 0.415; with Apatinib + Vorinostat (first compound 8 µM) it was 0.427.

In the case of COR-L 105, the relative viability came to 0.727 with Metformin + Phenformin (first compound 10 µM); 0.61 with Metformin + Phenformin (first compound 31.62 µM); 0.65 with Metformin + Phenformin (first compound 100 µM); 0.568 with Metformin + Phenformin (first compound 316.23 µM); 0.494 with Metformin + Phenformin (first compound 1000 µM); 0.476 with Apatinib + Trametinib (first compound 0.08 µM). Moreover, the relative viability is 0.418 in the assay with Apatinib + Trametinib (first compound 0.253 µM); 0.371 with Apatinib + Trametinib (first compound 0.8 µM); 0.436 with Apatinib + Trametinib (first compound 2.53 µM); 0.431 with Apatinib + Trametinib (first compound 8 µM); 0.512 with Apatinib + Pictilisib (first compound 0.08 µM); 0.471 in the assay with Apatinib + Pictilisib (first compound 0.253 µM). Further, the relative viability stood at 0.33 with Apatinib + Pictilisib (first compound 0.8 µM); 0.438 with Apatinib + Pictilisib (first compound 2.53 µM); 0.354 with Apatinib + Pictilisib (first compound 8 µM); 1.09 in the assay with Apatinib + Vorinostat (first compound 0.08 µM); 0.795 with Apatinib + Vorinostat (first compound 0.253 µM); 0.872 in the assay with Apatinib + Vorinostat (first compound 0.8 µM). For the same cell line, the relative viability in the assay with Apatinib + Vorinostat (first compound 2.53 µM) is 0.782; in the assay with Apatinib + Vorinostat (first compound 8 µM), 0.805.

Take Calu-6: the relative viability in the assay with Apatinib + Pictilisib (first compound 0.08 µM) amounted to 0.954; with Apatinib + Pictilisib (first compound 0.253 µM), 0.951; with Apatinib + Pictilisib (first compound 0.8 µM), 0.813; with Apatinib + Pictilisib (first compound 2.53 µM), 0.864; with Apatinib + Pictilisib (first compound 8 µM), 0.602.
